According to PubChem BioAssay AID342 (DTP/NCI, 2004):
Several values for one entry are separate records, joined by “and”; a condition that tells them apart may be missing. Equal values may be shown once.

Tested on: Swiss mice, Sarcoma 180 sc, mean tumor weight T/C
Assay: NCI In Vivo Anticancer Drug Screen. Data for tumor model Sarcoma 180 (subcutaneous) in Swiss mice
Conditions: endpoint: mean tumor weight, higher = larger tumour
Procedure, shortened: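 T/C ratio: treated over vehicle-treated controls, measuring survival or tumor size in transplanted-tumor mice.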

[1] = dose: 125.0 mg/kg/injection, schedule: Q01DX007 (ip), vehicle: other
[2] = dose: 15.0 mg/kg/injection, schedule: Q#A X014 (ip), vehicle: methylcellulose (MC)
[3] = dose: 22.5 mg/kg/injection, schedule: Q#A X014 (ip), vehicle: methylcellulose (MC)

NC(=O)CCC(NC(=O)c1ccc([N+](=O)[O-])cc1)C(=O)O (configuration not stated)
T/C (dose: 62.5 mg/kg/injection, schedule: Q01DX007 (ip), vehicle: other): 69 % of control | T/C [1]: 50 % of control | T/C (dose: 250.0 mg/kg/injection, schedule: Q01DX007 (ip), vehicle: other): 63 % of control

O=c1[nH]c(Cl)ncc1F
T/C (dose: 22.0 mg/kg/injection, schedule: Q01DX007 (ip), vehicle: saline): 36 % of control | T/C (dose: 33.0 mg/kg/injection, schedule: Q01DX007 (ip), vehicle: saline): 46 % of control | T/C (dose: 50.0 mg/kg/injection, schedule: Q01DX007 (ip), vehicle: saline): 29 % of control | T/C (dose: 75.0 mg/kg/injection, schedule: Q01DX007 (ip), vehicle: saline): 5 % of control

CNC(C)=O
T/C (dose: 125.0 mg/kg/injection, schedule: Q01DX007 (ip), vehicle: carboxymethylcellulose (CMC)): 84 % of control | T/C (dose: 250.0 mg/kg/injection, schedule: Q01DX007 (ip), vehicle: carboxymethylcellulose (CMC)): 90 % of control and 106 % of control | T/C (dose: 500.0 mg/kg/injection, schedule: Q01DX007 (ip), vehicle: carboxymethylcellulose (CMC)): 71 % of control | T/C (dose: 623.2 mg/kg/injection, schedule: Q01DX007 (ip), vehicle: carboxymethylcellulose (CMC)): 72 % of control | T/C (dose: 779.0 mg/kg/injection, schedule: Q01DX007 (ip), vehicle: carboxymethylcellulose (CMC)): 75 % of control | T/C (dose: 1038.66 mg/kg/injection, schedule: Q01DX007 (ip), vehicle: carboxymethylcellulose (CMC)): 69 % of control | T/C (dose: 1558.0 mg/kg/injection, schedule: Q01DX007 (ip), vehicle: carboxymethylcellulose (CMC)): 58 % of control | T/C (dose: 2000.0 mg/kg/injection, schedule: Q01DX007 (ip), vehicle: carboxymethylcellulose (CMC)): 23 % of control

C[C@]12CC[C@H](O)C[C@H]1CC[C@@H]1[C@@H]2CC[C@]2(C)[C@@H](C3=CC(=O)OC3)CC[C@]12O
T/C (dose: 5.0 mg/kg/injection, schedule: Q01DX007 (ip), vehicle: carboxymethylcellulose (CMC)): 79 % of control | T/C (dose: 10.0 mg/kg/injection, schedule: Q01DX007 (ip), vehicle: carboxymethylcellulose (CMC)): 68 % of control | T/C (dose: 25.0 mg/kg/injection, schedule: Q01DX007 (ip), vehicle: carboxymethylcellulose (CMC)): 86 % of control

O=C1C=CC2(CCC23C=CC(=O)O3)O1 (configuration not stated)
T/C (dose: 40.0 mg/kg/injection, schedule: Q01DX007 (ip), vehicle: saline): 88 % of control

C[C@]12CCC(=O)C[C@H]1CC[C@@H]1[C@@H]2C(=O)C[C@@]2(C)[C@H]1CC[C@]2(C)O
T/C (dose: 5.0 mg/kg/injection, schedule: Q#A X014 (sc), vehicle: steriod suspending solution): 72 % of control | T/C (dose: 50.0 mg/kg/injection, schedule: Q#A X014 (sc), vehicle: steriod suspending solution): 78 % of control | T/C (dose: 150.0 mg/kg/injection, schedule: Q#A X014 (sc), vehicle: steriod suspending solution): 110 % of control

CS(=O)(=O)OCCCCOS(C)(=O)=O
T/C (dose: 4.12 mg/kg/injection, schedule: Q#A X014 (ip), vehicle: carboxymethylcellulose (CMC)): 108 % of control | T/C (dose: 6.25 mg/kg/injection, schedule: Q#A X014 (ip), vehicle: carboxymethylcellulose (CMC)): 91 % of control | T/C (dose: 8.25 mg/kg/injection, schedule: Q#A X014 (ip), vehicle: carboxymethylcellulose (CMC)): 119 % of control | T/C (dose: 9.87 mg/kg/injection, schedule: Q01DX007 (ip), vehicle: carboxymethylcellulose (CMC)): 87 % of control | T/C (dose: 12.5 mg/kg/injection, schedule: Q#A X014 (ip), vehicle: carboxymethylcellulose (CMC)): 103 % of control | T/C (dose: 16.5 mg/kg/injection, schedule: Q#A X014 (ip), vehicle: carboxymethylcellulose (CMC)): 85 % of control | T/C (dose: 19.75 mg/kg/injection, schedule: Q01DX007 (ip), vehicle: carboxymethylcellulose (CMC)): 65 % of control | T/C (dose: 25.0 mg/kg/injection, schedule: Q#A X014 (ip), vehicle: carboxymethylcellulose (CMC)): 96 % of control | T/C (dose: 33.0 mg/kg/injection, schedule: Q#A X014 (ip), vehicle: carboxymethylcellulose (CMC)): 66 % of control | T/C (dose: 39.5 mg/kg/injection, schedule: Q01DX007 (ip), vehicle: carboxymethylcellulose (CMC)): 60 % of control

Cc1cc2nc3c(=O)[nH]c(=O)nc-3n(CCO)c2cc1C
T/C (dose: 60.0 mg/kg/injection, schedule: Q#A X014 (ip), vehicle: carboxymethylcellulose (CMC)): 78 % of control | T/C (dose: 120.0 mg/kg/injection, schedule: Q#A X014 (ip), vehicle: carboxymethylcellulose (CMC)): 77 % of control | T/C (dose: 240.0 mg/kg/injection, schedule: Q#A X014 (ip), vehicle: carboxymethylcellulose (CMC)): 76 % of control | T/C (dose: 384.0 mg/kg/injection, schedule: Q01DX007 (ip), vehicle: carboxymethylcellulose (CMC)): 61 % of control | T/C (dose: 480.0 mg/kg/injection, schedule: Q01DX007 (ip), vehicle: carboxymethylcellulose (CMC)): 62 % of control | T/C (dose: 480.0 mg/kg/injection, schedule: Q#A X014 (ip), vehicle: carboxymethylcellulose (CMC)): 40 % of control | T/C (dose: 640.0 mg/kg/injection, schedule: Q01DX007 (ip), vehicle: carboxymethylcellulose (CMC)): 82 % of control | T/C (dose: 960.0 mg/kg/injection, schedule: Q01DX007 (ip), vehicle: carboxymethylcellulose (CMC)): 66 % of control

S=P(N1CCCCCC1)(N1CC1)N1CC1
T/C (dose: 6.0 mg/kg/injection, schedule: Q01DX007 (ip), vehicle: carboxymethylcellulose (CMC)): 90 % of control | T/C (dose: 6.5 mg/kg/injection, schedule: Q#A X014 (ip), vehicle: methylcellulose (MC)): 52 % of control | T/C (dose: 9.0 mg/kg/injection, schedule: Q01DX007 (ip), vehicle: carboxymethylcellulose (CMC)): 60 % of control | T/C (dose: 10.0 mg/kg/injection, schedule: Q#A X014 (ip), vehicle: methylcellulose (MC)): 60 % of control | T/C (dose: 13.0 mg/kg/injection, schedule: Q01DX007 (ip), vehicle: carboxymethylcellulose (CMC)): 74 % of control | T/C [2]: 53 % of control | T/C (dose: 20.0 mg/kg/injection, schedule: Q01DX007 (ip), vehicle: carboxymethylcellulose (CMC)): 62 % of control | T/C [3]: 23 % of control | T/C (dose: 29.0 mg/kg/injection, schedule: Q01DX007 (ip), vehicle: carboxymethylcellulose (CMC)): 89 % of control | T/C (dose: 45.0 mg/kg/injection, schedule: Q01DX007 (ip), vehicle: carboxymethylcellulose (CMC)): 57 % of control | T/C (dose: 45.0 mg/kg/injection, schedule: Q01DX007 (ip), vehicle: saline): 25 % of control | T/C (dose: 67.0 mg/kg/injection, schedule: Q01DX007 (ip), vehicle: carboxymethylcellulose (CMC)): 38 % of control | T/C (dose: 90.0 mg/kg/injection, schedule: Q01DX007 (ip), vehicle: saline): 12 % of control

Cc1ccccc1N(C=O)c1ccccc1C
T/C (dose: 120.0 mg/kg/injection, schedule: Q01DX007 (ip), vehicle: methylcellulose (MC)): 164 % of control | T/C (dose: 200.0 mg/kg/injection, schedule: Q01DX007 (ip), vehicle: methylcellulose (MC)): 150 % of control | T/C (dose: 1000.0 mg/kg/injection, schedule: Q01DX007 (ip), vehicle: methylcellulose (MC)): 104 % of control

CN(C)NCCC#N
T/C [2]: 91 % of control | T/C [3]: 52 % of control | T/C (dose: 33.5 mg/kg/injection, schedule: Q#A X014 (ip), vehicle: methylcellulose (MC)): 49 % of control | T/C (dose: 50.0 mg/kg/injection, schedule: Q#A X014 (ip), vehicle: methylcellulose (MC)): 39 % of control

CCCCNC(=O)c1n[se]nc1NC(N)=O
T/C (dose: 15.0 mg/kg/injection, schedule: Q01DX007 (ip), vehicle: carboxymethylcellulose (CMC)): 94 % of control | T/C (dose: 30.0 mg/kg/injection, schedule: Q01DX007 (ip), vehicle: carboxymethylcellulose (CMC)): 114 % of control

CC1CC(C)C(O)C(C(O)CC2CC(=O)NC(=O)C2)C1 (configuration not stated)
T/C (dose: 40.0 mg/kg/injection, schedule: Q01DX007 (ip), vehicle: carboxymethylcellulose (CMC)): 84 % of control | T/C (dose: 62.0 mg/kg/injection, schedule: Q01DX007 (ip), vehicle: carboxymethylcellulose (CMC)): 55 % of control | T/C (dose: 93.0 mg/kg/injection, schedule: Q01DX007 (ip), vehicle: carboxymethylcellulose (CMC)): 44 % of control

SCc1ccccn1
T/C (dose: 62.0 mg/kg/injection, schedule: Q01DX007 (ip), vehicle: other): 117 % of control | T/C [1]: 103 % of control
